Reference: US11752156B2, “Compositions and methods for treating hyperproliferative skin disorders” (Athenex HK Innovative Limited, priority 2018, dated 2023)
pIC50: −log10 of the molar value.

Columns and labels:
[1] = system: A431 cells (epidermoid cells obtained from a human squamous cell carcinoma); assay: inhibition of cell growth by tazarotene, A431; assay type: cell-based
Description: FIG. 8: Inhibition of A431 cell growth by tazarotenee, as determined by staining.
(§1) Examples of suitable retinoids include retinol, retinal, retinoic acid isotretinoin, alitreninoin, etretinate, acitretin, adapalene, bexarotene, and/or tazarotene. FIGS. 7 and 8 show the effects of tazarotene on growth of cells in culture, including CCD-1106 KERTr keratinocytes (FIG. 7) and A431 cells (epidermoid cells obtained from a human squamous cell carcinoma, FIG. 8).

[2] = system: CCD-1106 KERTr keratinocytes; assay: inhibition of cell growth by tazarotene, keratinocytes; assay type: cell-based, human
Description: FIG. 7: Inhibition of CCD1106 KERTr keratinocyte growth by tazarotene, as determined by staining.
as §1

[3] = system: cell proliferation/growth; assay: combined treatment with KX01 and tazarotene, inhibition of cell proliferation/growth; assay type: cell-based
Description: as §1

`CCOC(=O)c1ccc(C#Cc2ccc3c(c2)C(C)(C)CCS3)nc1` [Tazarotene, tazarotene] was tested, and the Maximum inhibition ([1]; A431, model estimate) was 1.09, the H ([1]; A431, steepness of slope) was 1.66 and the pIC50 ([1]; Homo sapiens, A-431, A431, model estimate) was 4.44. It also gave a pIC50 ([2]; Homo sapiens, CCD-1106, model estimate) of 4.91, a Maximum inhibition ([2]; model estimate) of 0.903 and an H ([2]; steepness of slope) of 2.11. It also gave an H [3] of 1.0, an Imax [3] of 1.1 and an IC50 ([3]; column head says nM) of 13300 nM.
